Data as given in the OligoGym collection.
“And” between values parts separate entries of the source, which are not always exact repeats. Equal values may be shown once. After the bases stand the sugars from the 5' end (letter, count) and the backbone: PS all phosphorothioate, else s phosphorothioate and o phosphodiester by linkage. Methylation of C is not given here. e = 2'-O-(2-methoxyethyl) (MOE); k = constrained ethyl (cEt); d = 2'-deoxy (DNA)

biological target: IRF5; details: ASO, A-431, 0.00412 µM

Sequence	target mRNA inhibition
CTGATATGATACCTAA (sugars k3 d1 k1 d8 k3, PS)	20%

same assay, conditions: ASO, A-431, 0.01225 µM

Sequence	target mRNA inhibition
CTGATATGATACCTAA (sugars k3 d1 k1 d8 k3, PS)	29%

same assay, conditions: ASO, A-431, 0.03704 µM

Sequence	target mRNA inhibition
CTGATATGATACCTAA (sugars k3 d1 k1 d8 k3, PS)	38%

same assay, conditions: ASO, A-431, 0.11111 µM

Sequence	target mRNA inhibition
CTGATATGATACCTAA (sugars k3 d1 k1 d8 k3, PS)	64%

same assay, conditions: ASO, A-431, 0.33333 µM

Sequence	target mRNA inhibition
CTGATATGATACCTAA (sugars k3 d1 k1 d8 k3, PS)	83%

same assay, conditions: ASO, A-431, 1 µM

Sequence	target mRNA inhibition
CTGATATGATACCTAA (sugars k3 d1 k1 d8 k3, PS)	83%

same assay, conditions: ASO, KARPAS-229, 0.44444 µM

Sequence	target mRNA inhibition
AGGAGTGAGACGAGCA (sugars k3 d10 k3, PS)	12%
CCAATTTTGCATTCCA (sugars k3 d10 k3, PS)	51%
CCATTCTATGCCTTTT (sugars kkddddddddddkeke, PS)	37%

same assay, conditions: ASO, KARPAS-229, 1.33333 µM

Sequence	target mRNA inhibition
AGGAGTGAGACGAGCA (sugars k3 d10 k3, PS)	41%
CCAATTTTGCATTCCA (sugars k3 d10 k3, PS)	74%
CCATTCTATGCCTTTT (sugars kkddddddddddkeke, PS)	45%

same assay, conditions: ASO, KARPAS-229, 4 µM

Sequence	target mRNA inhibition
AGCTTGGTCTTGACCT (sugars kekdddddddddeekk, PS)	38%
AGCTTGGTCTTGACCT (sugars kkddddddddkekekk, PS)	0%
AGCTTGGTCTTGACCT (sugars kkkddddddddkdkdk, PS)	12%
AGGAAGTGAGTCTCAA (sugars kekdddddddddeekk, PS)	43%
AGGAAGTGAGTCTCAA (sugars kkddddddddddkeke, PS)	39%
AGGAAGTGAGTCTCAA (sugars kkdddddddddkekek, PS)	42%
AGGAAGTGAGTCTCAA (sugars kkkddddddddkdkdk, PS)	40%
AGGAGTGAGACGAGCA (sugars k3 d10 k3, PS)	56% and 58%
AGGAGTGAGACGAGCA (sugars kekdddddddddeekk, PS)	22%
AGGAGTGAGACGAGCA (sugars kkdddddddddkekek, PS)	36%
AGGAGTGAGACGAGCA (sugars kkkdddddddddkeke, PS)	42%
AGGTTCTTGGACTCTC (sugars k2 d8 e4 k2, PS)	17%
AGGTTCTTGGACTCTC (sugars k2 d9 e3 k2, PS)	0%
AGGTTCTTGGACTCTC (sugars kddddddddddkekek, PS)	34%
AGGTTCTTGGACTCTC (sugars kkdddddddddkekek, PS)	38%
ATCACCACTGTGTACC (sugars k3 d9 k3 e1, PS)	19%
ATCACCACTGTGTACC (sugars kkdddddddddkekek, PS)	0%
ATCACCACTGTGTACC (sugars kkddddddddkekekk, PS)	0%
ATGAGTCATGGGCTGA (sugars k3 d9 k3 e1, PS)	20%
ATGAGTCATGGGCTGA (sugars kddddddddddkekek, PS)	0%
ATGAGTCATGGGCTGA (sugars kkddddddddddkeke, PS)	0%
ATGAGTCATGGGCTGA (sugars kkdddddddddkekek, PS)	0%
ATGGTGTTATCTCCGT (sugars kdddddddddkekeke, PS)	0%
ATTCCAATTTTGCATT (sugars k3 d10 k3, PS)	21%

Sequence	target mRNA inhibition
ATTTCTGCTCCAGGTT (sugars kdddddddddkekeke, PS)	13%
ATTTCTGCTCCAGGTT (sugars kkddddddddkekekk, PS)	6%
ATTTGCCTTCTGCAGG (sugars k3 d10 k3, PS)	0%
ATTTTGTGACTGTATT (sugars k3 d10 k3, PS)	4%
CAATTTTGCATTCCAT (sugars kkddddddddkekekk, PS)	32%
CACATCTCCACATCAG (sugars kddddddddddkekek, PS)	15%
CACATCTCCACATCAG (sugars kkdddddddddkekek, PS)	22%
CACCACTGTGTACCCC (sugars kdddddddddkekeke, PS)	0%
CACTGACACAGGCGGA (sugars k3 d10 k3, PS)	1% and 0%
CACTGACACAGGCGGA (sugars kekdddddddddeekk, PS)	0%
CACTGACACAGGCGGA (sugars kkddddddddkekekk, PS)	0%
CACTTGATTCCAATTT (sugars k3 d10 k3, PS)	36%
CAGGTTCTTGGACTCT (sugars kkddddddddkekekk, PS)	0%
CAGGTTCTTGGACTCT (sugars kkkddddddddkekek, PS)	0%
CATCTCCACATCAGTC (sugars kdddddddddkekeke, PS)	32%
CATTCCATATACACAC (sugars kddddddddddkekek, PS)	31%
CATTCCATATACACAC (sugars kkdddddddddkdkdk, PS)	25%
CCAATGCAACATCCAT (sugars k2 d9 e3 k2, PS)	0%
CCAATGCAACATCCAT (sugars k3 d10 k3, PS)	0%
CCAATTTTGCATTCCA (sugars k2 d8 e4 k2, PS)	48%
CCAATTTTGCATTCCA (sugars k3 d10 k3, PS)	78% and 83%
CCACTGTGTACCCCAT (sugars kkddddddddkekekk, PS)	0%
CCATTCTATGCCTTTT (sugars kkddddddddddkeke, PS)	61% and 62%
CCATTCTATGCCTTTT (sugars kkdddddddddkdkdk, PS)	46%

Sequence	target mRNA inhibition
CCATTCTATGCCTTTT (sugars kkddddddddkekekk, PS)	3%
CCATTCTATGCCTTTT (sugars kkkddddddddkekek, PS)	44%
CCCAATGCAACATCCA (sugars k3 d10 k3, PS)	12%
CCCAATGCAACATCCA (sugars kkkddddddddkdkdk, PS)	0%
CCTTCTGCAGGGAGTC (sugars k3 d9 k3 e1, PS)	0%
CCTTCTGCAGGGAGTC (sugars k3 d10 k3, PS)	0%
CCTTCTGCAGGGAGTC (sugars kkddddddddddkeke, PS)	0%
CGGTCTTTGAGGTCTG (sugars kddddddddddkekek, PS)	68%
CTAGTGTCATGGAATT (sugars k3 d10 k3, PS)	34%
CTGACACAGGCGGATG (sugars kdddddddddkekeke, PS)	0%
CTGACACAGGCGGATG (sugars kkddddddddkekekk, PS)	0%
CTGTCACATCTCCACA (sugars kkddddddddkekekk, PS)	0%
CTTCTGCAGGGAGTCA (sugars k3 d9 k3 e1, PS)	0%
CTTCTGCAGGGAGTCA (sugars kkdddddddddkdkdk, PS)	0%
CTTCTGCAGGGAGTCA (sugars kkkddddddddkekek, PS)	0%
CTTGATTCCAATTTTG (sugars k3 d10 k3, PS)	20%
CTTGGTCTTGACCTCC (sugars k2 d8 e4 k2, PS)	20%
CTTGGTCTTGACCTCC (sugars k3 d9 k3 e1, PS)	6%
CTTGGTCTTGACCTCC (sugars kkddddddddddkeke, PS)	39%
CTTGGTCTTGACCTCC (sugars kkdddddddddkdkdk, PS)	13%
CTTGGTCTTGACCTCC (sugars kkdddddddddkekek, PS)	3%
CTTGGTCTTGACCTCC (sugars kkddddddddkekekk, PS)	0%
CTTGGTCTTGACCTCC (sugars kkkddddddddkdkdk, PS)	19%
CTTGGTCTTGACCTCC (sugars kkkddddddddkekek, PS)	1%

Sequence	target mRNA inhibition
GAGACGAGCAAAGGGT (sugars k3 d10 k3, PS)	40%
GAGCAAAGGGTGAGTA (sugars k3 d10 k3, PS)	0%
GAGTAATAGGAGTGAG (sugars k3 d10 k3, PS)	33%
GAGTCATGGGCTGAGG (sugars k2 d8 e4 k2, PS)	5%
GAGTCATGGGCTGAGG (sugars k2 d9 e3 k2, PS)	30%
GAGTCATGGGCTGAGG (sugars kddddddddddkekek, PS)	0%
GAGTCATGGGCTGAGG (sugars kkdddddddddkdkdk, PS)	31%
GAGTCTCAAACCAGGG (sugars kdddddddddkekeke, PS)	6%
GAGTGAGACGAGCAAA (sugars kddddddddddkekek, PS)	18%
GAGTGAGACGAGCAAA (sugars kdddddddddkekeke, PS)	6%
GATGGTGTTATCTCCG (sugars kkddddddddddkeke, PS)	0%
GCATTCCATATACACA (sugars kdddddddddkekeke, PS)	34%
GCATTCCATATACACA (sugars kkddddddddkekekk, PS)	0%
GCTGTCACATCTCCAC (sugars k3 d10 k3, PS)	33%
GCTTGGTCTTGACCTC (sugars k2 d8 e4 k2, PS)	19%
GCTTGGTCTTGACCTC (sugars kddddddddddkekek, PS)	18%
GCTTGGTCTTGACCTC (sugars kkddddddddddkeke, PS)	9%
GCTTGGTCTTGACCTC (sugars kkkddddddddkdkdk, PS)	30%
GGAAGTGAGTCTCAAA (sugars kkdddddddddkekek, PS)	25%
GGAAGTGAGTCTCAAA (sugars kkkddddddddkekek, PS)	45%
GGAGTGAGACGAGCAA (sugars k3 d10 k3, PS)	37%
GGAGTGAGACGAGCAA (sugars kkdddddddddkekek, PS)	27%
GGAGTGAGACGAGCAA (sugars kkkddddddddkekek, PS)	5%
GGGAGTCAGACCTACC (sugars k3 d10 k3, PS)	0%

same assay, conditions: ASO, KARPAS-229, 12 µM

Sequence	target mRNA inhibition
AGGAGTGAGACGAGCA (sugars k3 d10 k3, PS)	70%
CCAATTTTGCATTCCA (sugars k3 d10 k3, PS)	89%
CCATTCTATGCCTTTT (sugars kkddddddddddkeke, PS)	73%
